Test results from PMC12622802, “Potent kinase inhibitors from the Merck KGaA OGHL: Novel hits against Trypanosoma brucei with potential for repurposing” (PLOS Neglected Tropical Diseases, 2025).
Entries after “also recorded” stand apart in the source; their conditions may differ. Read-outs that look alike come from different tables or passages of the source.

How the values were obtained:
[1] = HAT regimens; cited from earlier work
[2] = Cytotoxicity, resazurin reduction assay, Vero; assay type: cell-based; conditions: African green monkey
Protocol: (§1) For cytotoxicity testing, they were seeded (90 µL) in 96-well plates at a density of 1x10^4 cells/well, in duplicate, and allowed to adhere overnight. […] Cell viability was then assessed using the resazurin reduction assay, as described above. […] Data were analysed using Microsoft Excel and GraphPad Prism 8.0. Nonlinear regression with a sigmoidal dose-response fit model was applied to the data to determine IC50 and CC50 values. Results represent the mean ± standard deviation (SD) from two independent experiments performed in duplicate.

[3] = target: TANK-binding kinase 1 (TBK1); design: method as in ref 37 = [37]; 37 Dorsch D , Wucherer-Plietker M , Mueller TJ , Merkul E . 3-([1,2,3]triazole-4-yl)-pyrrolo[2,3-b]pyridine derivates . World Intellectual Property Organization . 2010 . https://patents.google.com/pat; conditions: cited from earlier work
[4] = Cytotoxicity, resazurin reduction assay, HepG2; assay type: cell-based, human; conditions: human
Protocol: Vero E6 (African green monkey kidney), Raw264.7 (murine macrophages) and HepG2 (human hepatocyte carcinoma) cell lines, sourced from the American Type Culture Collection, were cultured in DMEM supplemented with 10% (v/v) heat-inactivated fetal bovine serum, 1% (v/v) non-essential amino acids, and 1% (v/v) penicillin-streptomycin. Cells were maintained at 37 °C in a 5% CO2 atmosphere. For cytotoxicity testing, they were seeded (90 µL) in 96-well plates at a density of 1x10^4 cells/well, in duplicate, and allowed to adhere overnight. Serial dilutions (50-0.08 µM) of the compounds were prepared, and 10 µL of each were incubated with the monolayer for 48 hours. Podophyllotoxin was tested as a positive control at 10 μM and 0.5% DMSO (100% cell viability) was used as negative control. Cell viability was then assessed using the resazurin reduction assay, as described above. The 50% cytotoxic concentration (CC50) was calculated using GraphPad Prism software (version 8.0), and selectivity indices (SIs) were determined by dividing the […].
Data were analysed using Microsoft Excel and GraphPad Prism 8.0. Nonlinear regression with a sigmoidal dose-response fit model was applied to the data to determine IC50 and CC50 values. Results represent the mean ± standard deviation (SD) from two independent experiments performed in duplicate.

[5] = system: bloodstream forms of T. b. brucei Lister 427; test: Resazurin reduction growth inhibition assay against bloodstream forms of T. b. brucei; assay type: cell-based, Trypanosoma brucei brucei; conditions: 72 hours, read-out: IC50 ± SD (µM) T. b. b.
Protocol: Bloodstream forms of T. b. brucei Lister 427, a virulent laboratory strain of Trypanosoma brucei were cultured in HMI-9 medium as previously described. […] The resulting signal measured between 570 nm and 590 nm, is directly proportional to the quantity of viable parasites. […] After incubation, a working solution of resazurin (0.15 mg/mL in DPBS) was added to the plates in a 1:10 (v/v) ratio, followed by incubation for 4 hours at 37 °C with 5% CO2. Fluorescence was measured using an Infinite M200 microplate reader (Tecan) at excitation and emission wavelengths of 530 nm and 590 nm, respectively. Compound achieving ≥ 50% inhibition of trypanosomes were selected for further dose-response studies.
Compounds that adhered to the cutoff criterion (≥ 50% inhibition) were serially diluted and tested for their half-maximal inhibitory concentrations (IC50). […] Dose-response curves were generated using GraphPad Prism software (version 8.0). […]
Data were analysed using Microsoft Excel and GraphPad Prism 8.0. Nonlinear regression with a sigmoidal dose-response fit model was applied to the data to determine IC50 and CC50 values.

[6] = system: bloodstream forms of T. b. brucei; test: Rescue experiment (4 h exposure, washout, drug-free medium); assay type: cell-based, Trypanosoma brucei brucei; conditions: 72 hours monitoring, 4xIC50 and 8xIC50
Protocol: (§2) To evaluate the killing kinetics of selected compounds, bloodstream forms of T. b. brucei (2 x 10⁵ cells/mL) were incubated in normal culture conditions in the presence of compounds at 8IC50, 4IC50, IC50, and 0.25IC50 concentrations in 24-well plates. Upon incubation, cultures were centrifuged at 0, 4, 8, 12, 24, 30, 36, 48, 60, and 72 hours’ time intervals at 2,500 rpm followed by motile trypanosomes enumeration using a Lumascope LS520 inverted microscope. To determine the mode of inhibition (parasitostatic or parasiticidal), a rescue experiment was conducted. Trypanosomes were exposed to the test doses (8IC50, 4IC50, IC50, and 0.25IC50) of the compounds for 4 hours. They were then washed three times with phosphate buffer saline (DPBS 1X), centrifuged at 2,500 rpm for 7 minutes, and resuspended in complete drug-free medium. These parasites were cultured under the same conditions, and motile organisms were enumerated with the Neubauer chamber at regular intervals over 72 hours. Data were plotted using GraphPad Prism 8.0 to determine the inhibition kinetics and classify the inhibitors as cidal or static. Pentamidine isethionate served as the reference compound and experiments were performed in duplicate.

[7] = Cytotoxicity, resazurin reduction assay, Raw264.7; assay type: cell-based, murine; conditions: mouse
Protocol: as §1

normal cells = system: normal cells; design: method as in ref 37 = [37]; 37 Dorsch D , Wucherer-Plietker M , Mueller TJ , Merkul E . 3-([1,2,3]triazole-4-yl)-pyrrolo[2,3-b]pyridine derivates . World Intellectual Property Organization . 2010 . https://patents.google.com/pat; conditions: cited from earlier work
[8] = system: bloodstream forms of T. b. brucei; test: Trypanosome killing kinetics (time-kill assay); assay type: cell-based, Trypanosoma brucei brucei; conditions: 8IC50, 4IC50, IC50, 0.25IC50; over 72 hours
Protocol: as §2

Structure (SMILES) | fatal encephalopathy, percentage of cases [1] | CC50 at 48 h [2] | IC50 [3] | CC50 at 48 h [4] | IC50 ([5]; Trypanosoma brucei, 72 h, confirmation screen, powdered form) | IC50 ([5]; Trypanosoma brucei, 72 h, primary screen, DMSO stock solution, bloodstream form T. b. brucei Lister 427) | IC50 ([5]; primary screen, DMSO stock solution, bloodstream form T. b. brucei Lister 427) | effect after short exposure and washout (reversible or irreversible) [6] | CC50 at 48 h [7] | CC50 (normal cells) | activity profile in time-kill assay (trypanocidal or cytostatic) [8]
Nc1nc(N)nc(Nc2ccc([As]3SCC(CO)S3)cc2)n1 (centres unmarked) [melarsoprol] | 5–10% | – | – | – | – | – | – | – | – | – | –
Cn1cc(-c2cnc3[nH]cc(-c4cn(Cc5cccc(F)c5F)nn4)c3c2)cn1 [OGHL00169, 3-(1-(2,3-difluorobenzyl)-1H-1,2,3-triazol-4-yl)-5-(1-methyl-1H-pyrazol-4-yl)-1H-pyrrolo[2,3-b]pyridine] | – | 2800 ± 30 nM | 0.196 nM | 50000 nM | 0.25 ± 0.04 µM | ≤ 1 µM | 0.85 ± 0.02 µM | irreversible trypanocidal activity; also recorded: irreversible trypanocidal effects | 12100 ± 1600 nM | 1000 to 10000 nM | strong trypanocidal activity
